{"source": "paper PMC10291556", "about": "(Journal of Medicinal Chemistry, 2023)", "key": {"[1]": {"test_system": "oral cancer xenograft", "design": "method as in PMID 33305724", "conditions": "BALB/c nude mice; cited from earlier work"}, "[2]": {"test_system": "HeLa cells", "assay": "HMGB1 release (ELISA)", "format": "cell-based, human", "conditions": "1×, 2×, 3× IC50, 20 h", "method": "(B) Extracellular level of HMGB1. […] The data in panels A, B, and C are shown as a mean of 4–5 measurements ± SD. Statistical significance from untreated control was determined with the Student t-test (*p ≤ 0.05, **p ≤ 0.01, and ^#p ≤ 0.001).\nHeLa cells were seeded in 24-well plates at a density of 10^4 cells/well and grown overnight. The medium was removed, and a fresh medium (DMEM, 1% BSA, no FBS) containing indicated concentrations of tested complexes was added (300 μL). Following a 20 h treatment, medium samples were withdrawn, and the HMGB1 content was determined using an HMGB1 ELISA Kit (IBL international) following the instructions for use. Cell counts in corresponding wells were determined using Automated Cell Counter (Bio-Rad). HMGB1 concentrations were normalized to cell counts and to the value of untreated control. The experiment was performed twice with duplicate readings."}, "[3]": {"test_system": "HeLa cells", "assay": "ATP secretion", "format": "cell-based, human", "conditions": "1× and 3× IC50, 24 h", "method": "HeLa cells were seeded in 24-well plates at a density of 10^4 cells/well, grown overnight, and then treated with the tested complexes for 24 h. Aliquots of culture medium samples were withdrawn, centrifugated (500g, 3 min), and processed with ATP Bioluminescence Assay Kit CLS II, Roche. Briefly, 50 μL of cell-free medium samples were added to a 96-well flat white plate, and an equal volume of luciferase reagent was added. The luminescence was measured immediately on a plate reader (SPARK, Tecan). The blank (no ATP) was subtracted from the raw data. ATP concentrations were obtained from the standard curve and normalized to cell counts and control. The data are shown as MEAN of 4–5 independent measurements."}, "[4]": {"assay": "Partition coefficient, shake-flask method", "format": "physicochemical", "conditions": "octanol/water", "experimental": "The “shake flask” method was used to measure the partition coefficients (P) of platinum compounds. The compounds were dissolved in octanol-saturated water (OSW) containing 200 mM NaCl. […] After careful separation of the layers with a fine-tip pipet, the Pt content in individual phases was determined by flameless atomic absorption spectrometry. The partition coefficients were calculated as the concentration ratio of the compound in the octanol layer to that in the aqueous layer, log P = log([Pt]WSO/[Pt]OSW)."}, "[5]": {"test_system": "MCF-7", "assay": "MTT antiproliferative assay, 72 h", "format": "cell-based, human", "conditions": "read-out: IC50 MCF-7", "experimental": "(§1) Cells were treated with the tested compounds in a final volume of 200 μL/well. […] Calbiochem, Darmstadt, Germany) was added, and the cells were incubated for an additional 2–4 h. The medium was removed, and the insoluble formazan product was dissolved in 100 μL/well DMSO. The absorbance was read at 570 nm (vs 620 nm) using an Absorbance Reader (SUNRISE TECAN SCHOELLER). The read values were converted to the percentage of control. […] All experiments were made in triplicate."}, "[6]": {"test_system": "A2780cisR", "assay": "MTT antiproliferative assay, 72 h", "format": "cell-based, human", "conditions": "read-out: IC50 A2780cisR", "experimental": "as §1"}, "[7]": {"test_system": "HCT-116", "assay": "MTT antiproliferative assay, 72 h", "format": "cell-based, human", "conditions": "read-out: IC50 HCT-116", "experimental": "as §1"}, "[8]": {"test_system": "HeLa", "assay": "MTT antiproliferative assay, 72 h", "format": "cell-based, human", "experimental": "as §1"}, "[9]": {"test_system": "A2780", "assay": "MTT antiproliferative assay, 72 h", "format": "cell-based, human", "conditions": "read-out: IC50 A2780", "experimental": "as §1"}, "[10]": {"test_system": "MDA-MB-231", "assay": "MTT antiproliferative assay, 72 h", "format": "cell-based, human", "conditions": "read-out: IC50 MDA-MB-231", "experimental": "as §1"}, "[11]": {"test_system": "HeLa cells", "assay": "Cellular accumulation of platinum (ICP-MS)", "format": "cell-based, human", "experimental": "Briefly, 3 × 10^6 cells were seeded in 100 mm culture dishes and grown overnight. The cells were exposed to the tested complexes at indicated concentrations for indicated periods. […] The pellets were digested using the microwave acid (HCl) digestion system (CEM Mars). The platinum quantity taken up by the cells was determined by inductively coupled plasma mass spectrometry (ICP–MS). All experiments were performed in triplicate."}, "[12]": {"test_system": "HeLa cells / Thp-1/PMA macrophages", "assay": "Phagocytosis of treated HeLa cells by Thp-1/PMA macrophages", "format": "cell-based, human", "conditions": "HeLa treated 24 h at 1× or 3× IC50,72h, co-incubated 2.5 h with Thp-1/PMA macrophages", "experimental": "Figure 8 Hallmarks of ICD. (A) Extracellular ATP levels in HeLa cell supernatants. […] (B) Extracellular level of HMGB1. […] (C) Calreticulin exposure to the cell surface. […] The surface calreticulin exposure was determined in 4′,6-diamidino-2-phenylindole dihydrochloride (DAPI)-negative cell population. Relative fluorescence intensity was calculated as the median fluorescence of the population of treated cells/median fluorescence of untreated control cells. The data in panels A, B, and C are shown as a mean of 4–5 measurements ± SD. Statistical significance from untreated control was determined with the Student t-test (*p ≤ 0.05, **p ≤ 0.01, and ^#p ≤ 0.001). (D) Quantitative evaluation of phagocytosis of HeLa cells treated with the investigated compounds by human Thp-1/PMA macrophages (analyzed by flow cytometry). […] Error bars are the SEMs calculated from three independent experiments. The stars denote a significant difference from untreated control (*p ≤ 0.05, **p ≤ 0.01) as calculated by the […] Student t-test. […]\nHuman monocytic leukemia cells Thp-1 (obtained from American Type Culture Collection, ATCC) were differentiated into macrophages with phorbol 12-myristate 13-acetate (PMA, 100 nM) for 24 h. […] Phagocytosis was evaluated using flow cytometry (BD FACSVerse), and data were analyzed with FCS Express 7 (DeNovo software; Glendale, CA). […]"}, "[13]": {"test_system": "DNA isolated from HeLa cells", "assay": "Pt associated with DNA isolated from treated HeLa cells", "format": "cell-based, human", "conditions": "1 µM compound, 6 h, mean ± SD", "source_text": "page 16: Table S1: […] concentration of tested compounds for 6 ha. […] Figure S19: A. Representative histograms obtained by flow cytometric analysis of calreticulin exposure in HeLa cells treated with indicated compounds. B. An example of gating DAPI negative population. Only DAPI-negative cells were taken for the evaluation."}, "[14]": {"test_system": "peritoneal carcinomatosis", "design": "method as in PMID 20535526", "conditions": "BD-IX rats; cited from earlier work"}, "[15]": {"test_system": "MRC-5", "assay": "MTT assay in non-cancerous fibroblasts, 72 h", "format": "cell-based", "conditions": "non-cancerous human fibroblasts, 72 h incubation, mean ± SD", "experimental": "as §1, with “The absorbance was read at 570 nm (vs 620 nm) using an Absorbance Reader (SUNRISE TECAN SCHOELLER).” left out"}, "[16]": {"test_system": "HeLa cells", "assay": "Calreticulin exposure (flow cytometry)", "format": "cell-based, human", "conditions": "3× IC50, 16–18 h, DAPI-negative cells", "method": "Following the treatment, the cells were harvested (trypsin), washed with FACS buffer (PBS, BSA 1%, and FBS 2%), and incubated with Alexa Fluor 488 Anti-Calreticulin antibody for 40 min at 4 °C. The buffer was removed (CFG, 300 g, 3 min) and replaced with FACS buffer containing DAPI (1 μg mL^–1, 20 min), and the cells were analyzed with flow cytometry (BD FACS Verse) and FCS Express 6 (DeNovo Software, Glendale, CA). Calreticulin fluorescence histograms were analyzed in the DAPI-negative (intact membrane) cell population."}, "[17]": {"test_system": "HeLa cells", "assay": "Mitochondrial membrane potential (TMRE, flow cytometry)", "format": "cell-based, human", "conditions": "10× IC50, 1 h, vs untreated control", "experimental": "Figure 4 Changes in the mitochondrial membrane potential Δψm in HeLa cells. The cells were treated with Pt compounds at the concentrations corresponding to 10× IC50 for 1 h and subsequently stained with TMRE. The fluorescence was measured by flow cytometry. Data represents mean ± SD from three independent experiments, *p < 0.01.\nHeLa cells were seeded (6-well plates, 3 × 10^5 cells/well), grown overnight, and then treated with the tested compounds for 1 h. The medium was removed, and a fresh medium containing TMRE (Thermo Fisher Scientific) at a final concentration of […] in 500 μL was added. The cells were incubated for 30 min at 37 °C and then harvested using trypsin. TMRE fluorescence was measured with a fluorescence-activated cell sorting (FACS) Verse flow cytometer (Becton Dickinson), and the data were analyzed using the ModFit LT 4.1 (Verity Software House) software. The experiment was performed in triplicate."}, "[18]": {"test_system": "COX in HeLa cells", "assay": "COX activity assay (kit) in treated cells", "format": "cell-based, human", "conditions": "24 h, 1× IC50,72h, vs untreated control", "experimental": "The results are expressed relative to the COX activity of untreated control.\nHeLa cells were seeded in 6-well plates at a density of 10^5 cells/well and incubated overnight. The cells were treated with the tested compounds at concentrations corresponding to 1× IC50. Following a 24 h treatment, the cells were lyzed with radioimmunoprecipitation assay (RIPA) buffer supplemented with proteinase inhibitors on ice for 10 min. The extracts were cleared with centrifugation (12,000g/5 min), and protein content was determined using Bradford assay. COX activity was determined with a COX Activity Assay Kit (Abcam). 6 μg of protein was used in the reaction. The experiment was set up according to the manufacturer’s instructions. The fluorescence (Ex/Em 535/587 nm) was read in a kinetic mode, and the COX inhibition was expressed as a percentage of the activity of the untreated control."}, "[19]": {"assay": "MTT assay in non-cancerous fibroblasts, 72 h", "format": "cell-based", "conditions": "MRC-5 cells (non-cancerous fibroblasts), non-cancerous human fibroblasts, 72 h incubation, mean ± SD", "experimental": "as §1, with “The absorbance was read at 570 nm (vs 620 nm) using an Absorbance Reader (SUNRISE TECAN SCHOELLER).” left out"}, "[20]": {"conditions": "MTT, 72 h incubation, mean ± SD"}}, "note": "Read-outs that look alike come from different tables or passages of the source."}
{"smiles": "Cc1c(C)c2cccnc2c2ncccc12.N[C@H]1CCCC[C@@H]1N.[Pt]", "note": "[complex 1, [Pt(1S,2S-diaminocyclohexane)(5,6-dimethyl-1,10-phenanthroline)]^2+]", "values": [{"measurement": "in vivo anticancer effect, oral cancer xenograft", "setting": "[1]", "value": "potent anticancer effect"}, {"measurement": "HMGB1 secretion", "setting": "[2]", "value": "effective as well"}, {"measurement": "ATP secretion", "setting": "[3]", "value": "effective as well"}, {"measurement": "log P", "setting": "[4]", "value": "–1.7 ± 0.2"}, {"measurement": "IC50", "setting": "[5]; [20]", "value": "0.7 ± 0.1", "unit": "µM"}, {"measurement": "IC50", "setting": "[6]; [20]", "value": "0.06 ± 0.01", "unit": "µM"}, {"measurement": "IC50", "setting": "[7]; [20]", "value": "0.08 ± 0.01", "unit": "µM"}, {"measurement": "IC50", "setting": "[8]; MTT, 72 h incubation, mean ± SD, read-out: IC50 HeLa", "value": "0.37 ± 0.01", "unit": "µM"}, {"measurement": "IC50", "setting": "[9]; [20]", "value": "0.19 ± 0.04", "unit": "µM"}, {"measurement": "IC50", "setting": "[10]; [20]", "value": "0.24 ± 0.03", "unit": "µM"}, {"measurement": "cellular uptake 0.1 μM/24 h", "setting": "[11]; 0.1 μM complex, 24 h", "value": "4.4 ± 0.5", "unit": "ng Pt/10^6 cells"}, {"measurement": "cellular uptake 1 μM/6 h", "setting": "[11]; 1 μM complex, 6 h", "value": "13 ± 3", "unit": "ng Pt/10^6 cells"}, {"measurement": "cellular uptake 10 μM/6 h", "setting": "[11]; 10 μM complex, 6 h", "value": "72 ± 2", "unit": "ng Pt/10^6 cells"}, {"measurement": "increase of tumor-cell phagocytosis", "setting": "[12]", "value": "roughly as effective as its Pt(IV) analogues 2–4"}, {"measurement": "amount of Pt associated with DNA", "setting": "[13]", "value": "2.0 ± 0.2", "unit": "pg Pt/µg DNA"}, {"measurement": "in vivo antitumor activity, peritoneal carcinomatosis", "setting": "[14]", "value": "no antitumor activity"}, {"measurement": "IC50", "setting": "[15]", "value": "0.17 ± 0.04", "unit": "µM"}, {"measurement": "externalization of calreticulin", "setting": "[16]", "value": "effective as well"}]}
{"smiles": "O=C([O-])Cc1ccccc1Nc1c(Cl)cccc1Cl.[Na+]", "note": "[DCF, sodium {2-[(2,6-dichlorophenyl)amino]phenyl}-acetate, reference compound]", "values": [{"measurement": "HMGB1 secretion", "setting": "[2]", "value": "effective as well"}, {"measurement": "ATP secretion", "setting": "[3]", "value": "effective as well"}, {"measurement": "IC50", "setting": "[5]; Homo sapiens, MCF7, 72 h", "value": "259 ± 17", "unit": "µM"}, {"measurement": "IC50", "setting": "[6]; Homo sapiens, A2780cisR, 72 h", "value": "138 ± 8", "unit": "µM"}, {"measurement": "IC50", "setting": "[7]; Homo sapiens, HCT-116, 72 h", "value": "211 ± 10", "unit": "µM"}, {"measurement": "IC50", "setting": "[8]; Homo sapiens, HeLa, 72 h, read-out: IC50 HeLa", "value": "250 ± 22", "unit": "µM"}, {"measurement": "IC50", "setting": "[8]; Homo sapiens, HeLa, read-out: HeLa (biological data CSV)", "value": "240 ± 15", "unit": "µM"}, {"measurement": "IC50", "setting": "[9]; Homo sapiens, A2780, 72 h", "value": "238 ± 19", "unit": "µM"}, {"measurement": "IC50", "setting": "[10]; Homo sapiens, MDA-MB-231, 72 h", "value": "187 ± 15", "unit": "µM"}, {"measurement": "mitochondrial membrane potential Δψm (TMRE fluorescence)", "setting": "[17]", "value": "approximately the same effect"}, {"measurement": "inhibition of COX activity", "setting": "[18]", "value": "Inhibition of COX activity was also observed"}, {"measurement": "IC50 at 72 h", "setting": "[19]", "value": "445 ± 36", "unit": "µM"}, {"measurement": "externalization of calreticulin", "setting": "[16]", "value": "effective as well"}]}
